{"source": "paper PMC4791268", "about": "“Inhibition of p300 lysine acetyltransferase activity by luteolin reduces tumor growth in head and neck squamous cell carcinoma (HNSCC) xenograft mouse model” (Oncotarget, 2015)", "molecular_target": "T1, p300 (Homo sapiens, UniProt Q09472)", "T1 construct": "gene EP300; hexahistidine tagged full length p300", "T1 sequence (Q09472 2-2414)": "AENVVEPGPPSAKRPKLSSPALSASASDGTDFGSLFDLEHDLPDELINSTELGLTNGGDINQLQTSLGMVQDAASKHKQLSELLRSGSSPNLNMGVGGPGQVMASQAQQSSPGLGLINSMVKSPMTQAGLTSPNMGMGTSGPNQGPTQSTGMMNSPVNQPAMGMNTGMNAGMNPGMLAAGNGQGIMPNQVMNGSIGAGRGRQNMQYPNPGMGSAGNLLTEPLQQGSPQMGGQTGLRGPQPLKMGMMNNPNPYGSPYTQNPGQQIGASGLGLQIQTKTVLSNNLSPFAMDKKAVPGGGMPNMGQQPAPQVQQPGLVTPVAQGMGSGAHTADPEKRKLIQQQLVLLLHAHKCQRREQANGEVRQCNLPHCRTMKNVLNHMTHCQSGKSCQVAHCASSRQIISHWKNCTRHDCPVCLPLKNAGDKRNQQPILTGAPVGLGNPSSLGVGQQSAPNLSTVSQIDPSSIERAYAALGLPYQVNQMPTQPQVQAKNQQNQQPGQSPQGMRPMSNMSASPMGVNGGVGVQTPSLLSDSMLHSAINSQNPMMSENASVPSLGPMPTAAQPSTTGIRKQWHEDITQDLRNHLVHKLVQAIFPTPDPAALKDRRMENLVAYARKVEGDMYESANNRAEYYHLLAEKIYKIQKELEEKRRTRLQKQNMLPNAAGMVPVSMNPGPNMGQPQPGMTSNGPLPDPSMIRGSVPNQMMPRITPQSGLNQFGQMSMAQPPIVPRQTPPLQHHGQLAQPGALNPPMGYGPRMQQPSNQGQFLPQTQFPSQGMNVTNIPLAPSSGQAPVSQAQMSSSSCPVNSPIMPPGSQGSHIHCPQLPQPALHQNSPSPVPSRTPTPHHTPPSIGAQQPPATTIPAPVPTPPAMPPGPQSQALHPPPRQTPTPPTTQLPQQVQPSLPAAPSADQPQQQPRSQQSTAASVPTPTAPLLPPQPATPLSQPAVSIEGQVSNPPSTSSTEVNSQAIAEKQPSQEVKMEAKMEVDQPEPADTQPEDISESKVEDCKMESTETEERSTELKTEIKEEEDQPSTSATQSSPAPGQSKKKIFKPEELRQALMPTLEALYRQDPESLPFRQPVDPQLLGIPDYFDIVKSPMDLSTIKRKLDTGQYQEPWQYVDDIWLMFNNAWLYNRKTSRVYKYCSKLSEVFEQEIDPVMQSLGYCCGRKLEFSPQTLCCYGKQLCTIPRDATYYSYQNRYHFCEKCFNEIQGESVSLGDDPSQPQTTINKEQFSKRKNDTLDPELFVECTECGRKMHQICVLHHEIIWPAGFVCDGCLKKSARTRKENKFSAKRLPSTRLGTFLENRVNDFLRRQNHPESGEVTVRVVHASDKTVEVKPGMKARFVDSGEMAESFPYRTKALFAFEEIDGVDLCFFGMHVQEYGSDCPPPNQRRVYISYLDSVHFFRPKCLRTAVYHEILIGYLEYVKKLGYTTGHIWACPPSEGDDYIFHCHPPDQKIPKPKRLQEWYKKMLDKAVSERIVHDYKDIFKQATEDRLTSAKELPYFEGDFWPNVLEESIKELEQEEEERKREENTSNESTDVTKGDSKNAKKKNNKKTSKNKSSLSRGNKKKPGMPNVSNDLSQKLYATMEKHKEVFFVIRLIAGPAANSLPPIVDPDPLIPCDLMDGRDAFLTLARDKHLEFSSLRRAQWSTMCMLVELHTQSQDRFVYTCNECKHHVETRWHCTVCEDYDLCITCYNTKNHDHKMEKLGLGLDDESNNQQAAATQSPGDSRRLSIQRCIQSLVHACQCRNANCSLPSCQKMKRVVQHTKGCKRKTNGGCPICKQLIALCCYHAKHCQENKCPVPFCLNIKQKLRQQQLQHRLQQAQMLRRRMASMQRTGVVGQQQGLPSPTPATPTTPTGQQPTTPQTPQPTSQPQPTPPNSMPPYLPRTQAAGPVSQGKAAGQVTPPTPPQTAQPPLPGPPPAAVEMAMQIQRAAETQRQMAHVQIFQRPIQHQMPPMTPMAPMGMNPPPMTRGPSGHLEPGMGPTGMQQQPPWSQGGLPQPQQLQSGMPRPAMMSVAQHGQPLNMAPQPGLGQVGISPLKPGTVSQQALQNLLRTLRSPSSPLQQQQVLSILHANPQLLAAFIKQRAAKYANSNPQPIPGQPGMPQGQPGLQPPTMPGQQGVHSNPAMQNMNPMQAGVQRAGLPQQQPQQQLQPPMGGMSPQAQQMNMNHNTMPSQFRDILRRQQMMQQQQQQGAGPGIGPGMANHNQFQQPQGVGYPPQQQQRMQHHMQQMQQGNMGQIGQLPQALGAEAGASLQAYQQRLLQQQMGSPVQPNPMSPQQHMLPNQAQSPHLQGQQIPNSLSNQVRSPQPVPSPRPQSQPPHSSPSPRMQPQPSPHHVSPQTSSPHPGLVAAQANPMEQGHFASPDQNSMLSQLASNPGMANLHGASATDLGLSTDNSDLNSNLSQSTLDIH", "experiment": "filter binding KAT assay with HeLa core histones; enzyme inhibition kinetics", "assay_type": "biochemical", "data": [{"smiles": "O=c1cc(-c2ccc(O)c(O)c2)oc2cc(O)cc(O)c12", "note": "[luteolin]", "values": [{"measurement": "IC50", "value": 7, "unit": "µM"}]}]}
